Source: patent publication US10517867B2, “Posaconazole derivative, pharmaceutical composition and use thereof” (priority 2016, dated 2019)
Like-named read-outs stand apart in the source and are kept apart here.

Legend:
[1] = Solid stability test (stability chamber, HPLC total impurity); format: physicochemical; conditions: solid, packaged, 25° C.±2° C., relative humidity 60%±2%
[2] = system: Candida albicans ATCC10231; experiment: Candida albicans vaginitis in mice, intragastric administration; format: in vivo, KM mice; conditions: logarithm of the CFU values, mean ± SD of 20 mice, 20 mg/kg intragastric once a day
[3] = system: Candida albicans ATCC10231; experiment: Systemic fungal infection in mice, intravenous administration; format: in vivo, ICR mice
[4] = system: Candida albicans ATCC10231; experiment: Systemic fungal infection in mice, intragastric administration; format: in vivo, ICR mice; conditions: for responders at 20 mg/kg: Candida albicans, ATCC10231, po
[5] = system: Candida albicans ATCC10231; experiment: Candida albicans vaginitis in mice, intravenous administration; conditions: logarithm of the CFU values, mean ± SD of 20 mice; for vaginal fungal load of mice, day 5: 20 mg/kg tail vein once a day for 5 days, day 5 after infection; for vaginal fungal load of mice, day 3: 20 mg/kg tail vein once a day, day 3 after infection
Procedure: KM mice, weighing 18-22 g, female, provided by Hubei Experimental Animal Center.
The standard strain of Candida albicans was purchased from the American Type Culture
Collection, strain number ATCC10231.
Prior to being infected with Candida albicans, animals in each group were given subcutaneous injections of 0.5 ml of estradiol benzoate (2 mg/ml) for 6 consecutive days to allow them to enter the estrus phase. Injections were continued once every 2 days until the completion of the experiment. After 6 days, 20 μl of Candida albicans solution in a concentration of 3.5×10^6 CFU/ml was injected vaginally into each mouse, causing a vaginal infection model. From the first day after infection, each group of animals was given 20 mg/kg of the corresponding drug (calculated as posaconazole) in the tail vein at an administration volume of 0.1 ml/10 g once a day for 5 consecutive days. The model group was given an equal volume of solvent (physiological saline). On the 3rd and 5th days after infection, the vagina of mice were wiped with sterile cotton swabs. The cotton swabs were soaked in 0.9 ml physiological saline. The fungal solutions were diluted to 10-fold increments to give a series of concentrations, and then 100 μl of each concentration of the bacteria solutions was taken and inoculated on Sabourand's dextrose agar solid medium containing 0.5% (W/V) chloramphenicol to observe the fungal load of Candida albicans on the vagina.

[6] = system: Aspergillus Fumigutus (AF) strains; experiment: Aspergillus fumigatus keratitis in rats, intravenous administration; conditions: 10 mg/kg tail vein once daily for 5 days; mean ± SD of 10 rats
[7] = Determination of solubility in deionized water (HPLC, external standard); conditions: for Solubility: 25±2° C., after 30 min; for solubility at 30 min: 25 °C, water, thermodynamic from solid
[8] = system: Aspergillus fumigatus AF293; experiment: Lung Aspergillus fumigatus infection in immunosuppressed mice, intravenous administration; conditions: for responders at 20 mg/kg: Aspergillus fumigatus, AF293, in Mus musculus, iv; for lung fungal load: mouse lung tissue, seven days later, 20 mg/kg tail vein once daily for 5 days, mean ± SD
Procedure: ICR male mice were injected intraperitoneally with cyclophosphamide 150 mg/kg and injected subcutaneously with dexamethasone 150 mg/kg for 10 consecutive days. At the same time, the blood was taken to measure the changes of peripheral white blood cells and neutrophils, and mice with neutrophils consistently lower than 100/μl were selected as successfully immunosuppressed mice. Immediately after the last injection, the mice were anesthetized with ethyl ether, and mice were transferred from the initial state of excitement to inhibition. After their bodies were relaxed, the mice were immediately taken. Left hand was used to grasp the mouse to make it stand upright, the middle finger pressed the mouth so that it could breath only with the nose, and the ring finger gently pressed the abdomen to move the diaphragm muscle upward. 30 μl of conidia suspension (Aspergillus fumigatus AF293, 3×10^6 conidia) was sent to the nostrils of the anesthetized mice by a micropipette to allow spontaneous inhalation. After the mouse returned to normal breathing, it was returned to the cage. […] The death of the mice was observed and the survival time was recorded. Seven days later, the mice were sacrificed and their lung tissues were taken to observe the fungal loads of Aspergillus fumigatus in the lungs of the mice.

[9] = Pharmacokinetics after single intragastric administration to rats; format: in vivo, SD rats; conditions: plasma posaconazole, 2.5 mg/kg (calculated as posaconazole)
Procedure: Administration amount: 2.5 mg/kg (calculated as posaconazole)
Administration volume: 10 ml/kg
Drug concentration: 0.25 mg/mL
Administration vehicle: the positive drug posaconazole group used CMC—Na, while other groups used normal saline (physiological saline)
Administration route: intragastric administration
Experimental animals: SD rats, SPF grade, weighing 180-220 g, equal amount of male and female. Rats were randomly divided into groups of 6 with 3 males and 3 females.
Experimental protocol: after oral intragastric administration, blood samples were collected at different time points to determine the concentration of posaconazole in the plasma and the pharmacokinetic parameters of posaconazole were obtained.

[10] = In vitro metabolic stability in human plasma; format: in vitro ADME; conditions: 37° C., 10 μM compound, metabolic half-life
Summary of the method: (§1)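 Human or rat plasma, preincubated 5 min at 37 °C, or intestinal S9 at 37 °C, spiked from 1 mM stock; triplicates sampled at 1, 2, 5, 15 and 30 min into cold internal standard. HPLC quantitation; half-life by non-compartmental analysis.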

[11] = In vitro metabolic stability in human intestine S9; format: in vitro ADME; conditions: 37° C., 10 μM compound, 1 mg/mL S9, NADPH regeneration system
Summary of the method: as §1

[12] = In vitro metabolic stability in rat plasma; format: in vitro ADME; conditions: 37° C., 10 μM compound, metabolic half-life
Summary of the method: as §1

[13] = In vitro metabolic stability in rat intestine S9; format: in vitro ADME; conditions: 37° C., 10 μM compound, 1 mg/mL S9, NADPH regeneration system
Summary of the method: as §1

[14] = 24 h, read-out: survival rate of mice, day 1
[15] = 48 h, read-out: survival rate of mice, day 2
[16] = 72 h, read-out: survival rate of mice, day 3
[17] = 96 h, read-out: survival rate of mice, day 4
[18] = 120 h, read-out: survival rate of mice, day 5
[19] = 144 h, read-out: survival rate of mice, day 6
[20] = 168 h, read-out: survival rate of mice, day 7
[21] = 24 h, read-out: survival rate of mice, day 1, 20 mg/kg intragastric once daily for 5 days, day 1
[22] = 48 h, read-out: survival rate of mice, day 2, 20 mg/kg intragastric once daily for 5 days, day 2
[23] = 72 h, read-out: survival rate of mice, day 3, 20 mg/kg intragastric once daily for 5 days, day 3
[24] = 96 h, read-out: survival rate of mice, day 4, 20 mg/kg intragastric once daily for 5 days, day 4
[25] = 120 h, read-out: survival rate of mice, day 5, 20 mg/kg intragastric once daily for 5 days, day 5
[26] = 144 h, read-out: survival rate of mice, day 6, 20 mg/kg intragastric once daily for 5 days, day 6
[27] = 168 h, read-out: survival rate of mice, day 7, 20 mg/kg intragastric once daily for 5 days, day 7
[28] = 24 h, read-out: survival rate of mice, day 1, 20 mg/kg tail vein once daily for 5 days, day 1
[29] = 48 h, read-out: survival rate of mice, day 2, 20 mg/kg tail vein once daily for 5 days, day 2
[30] = 72 h, read-out: survival rate of mice, day 3, 20 mg/kg tail vein once daily for 5 days, day 3
[31] = 96 h, read-out: survival rate of mice, day 4, 20 mg/kg tail vein once daily for 5 days, day 4
[32] = 120 h, read-out: survival rate of mice, day 5, 20 mg/kg tail vein once daily for 5 days, day 5
[33] = 144 h, read-out: survival rate of mice, day 6, 20 mg/kg tail vein once daily for 5 days, day 6
[34] = 168 h, read-out: survival rate of mice, day 7, 20 mg/kg tail vein once daily for 5 days, day 7

SMILES | Total impurity increment in 30 days [1] [%] | responders at 20 mg/kg [3, 14] [%] | responders at 20 mg/kg [3, 15] [%] | responders at 20 mg/kg [3, 16] [%] | responders at 20 mg/kg [3, 17] [%] | responders at 20 mg/kg [4, 21] [%] | responders at 20 mg/kg [4, 22] [%] | responders at 20 mg/kg [4, 23] [%] | responders at 20 mg/kg [4, 24] [%] | responders at 20 mg/kg [4, 25] [%] | responders at 20 mg/kg [4, 26] [%] | responders at 20 mg/kg [4, 27] [%] | Amount of active fungi in cornea at day 7 [6] | responders at 20 mg/kg [8, 28] [%] | responders at 20 mg/kg [8, 29] [%] | responders at 20 mg/kg [8, 30] [%] | responders at 20 mg/kg [8, 31] [%] | responders at 20 mg/kg [8, 32] [%] | responders at 20 mg/kg [8, 33] [%] | responders at 20 mg/kg [8, 34] [%] | further results
CC[C@@H]([C@H](C)O)n1ncn(-c2ccc(N3CCN(c4ccc(OC[C@@H]5CO[C@@](Cn6c[n+](C(C)OC(=O)N(C)c7ncccc7COC(=O)[C@@H](N)CCCN)cn6)(c6ccc(F)cc6F)C5)cc4)CC3)cc2)c1=O (some centres unmarked) [ST0003] | 0.68 | 100 | 100 | 100 | 100 | 100 | 100 | 100 | 90 | 80 | 80 | 80 | 1.48 ± 0.38 10^3 CFU/ml | 100 | 100 | 100 | 100 | 100 | 90 | 90 | vaginal fungal load of mice, day 3 ([2]; 20 mg/kg): 4.23 ± 0.41; vaginal fungal load of mice, day 5 ([2]; 20 mg/kg): 4.05 ± 0.37; vaginal fungal load of mice, day 7 ([2]; 20 mg/kg): 3.28 ± 0.36; vaginal fungal load of mice, day 11 ([2]; 20 mg/kg): 2.47 ± 0.18; responders at 20 mg/kg [3, 18]: 100%; responders at 20 mg/kg [3, 19]: 100%; responders at 20 mg/kg [3, 20]: 90%; vaginal fungal load of mice, day 5 ([5]; 20 mg/kg): 3.85 ± 0.28; vaginal fungal load of mice, day 3 ([5]; 20 mg/kg): 4.11 ± 0.30; Solubility [7]: >50 mg/mL; lung fungal load ([8]; 20 mg/kg): 1.39 ± 0.32 10^4 CFU/ml
CC[C@@H]([C@H](C)O)n1ncn(-c2ccc(N3CCN(c4ccc(OC[C@@H]5CO[C@@](Cn6c[n+](C(C)OC(=O)N(C)c7ncccc7COC(=O)[C@@H](N)CCN)cn6)(c6ccc(F)cc6F)C5)cc4)CC3)cc2)c1=O (some centres unmarked) [ST0006] | – | – | – | – | – | 100 | 100 | 90 | 80 | 70 | 70 | 70 | 1.92 ± 0.41 10^3 CFU/ml | 100 | 100 | 100 | 100 | 90 | 90 | 80 | vaginal fungal load of mice, day 3 [2]: 4.32 ± 0.29; vaginal fungal load of mice, day 5 [2]: 4.18 ± 0.20; vaginal fungal load of mice, day 7 [2]: 3.49 ± 0.54; vaginal fungal load of mice, day 11 [2]: 2.84 ± 0.37; solubility at 30 min [7]: > 50 mg/mL; lung fungal load [8]: 1.73 ± 0.34 10^4 CFU/ml
CC[C@@H]([C@H](C)O)n1ncn(-c2ccc(N3CCN(c4ccc(OC[C@@H]5CO[C@@](Cn6c[n+](C(C)OC(=O)N(C)c7ncccc7COC(=O)[C@@H](N)CCCNC(N)=O)cn6)(c6ccc(F)cc6F)C5)cc4)CC3)cc2)c1=O (some centres unmarked) [ST0012] | – | 100 | 100 | 100 | 100 | 100 | 100 | 100 | 80 | 80 | 80 | 80 | 1.45 ± 0.37 10^3 CFU/ml | 100 | 100 | 100 | 100 | 100 | 90 | 90 | vaginal fungal load of mice, day 3 [2]: 4.17 ± 0.43; vaginal fungal load of mice, day 5 [2]: 4.12 ± 0.35; vaginal fungal load of mice, day 7 [2]: 3.10 ± 0.34; vaginal fungal load of mice, day 11 [2]: 2.42 ± 0.19; responders at 20 mg/kg [3, 18]: 100%; responders at 20 mg/kg [3, 19]: 100%; responders at 20 mg/kg [3, 20]: 90%; vaginal fungal load of mice, day 5 [5]: 3.75 ± 0.26; vaginal fungal load of mice, day 3 [5]: 4.01 ± 0.28; solubility at 30 min [7]: > 50 mg/mL; lung fungal load [8]: 1.42 ± 0.30 10^4 CFU/ml
CC[C@@H]([C@H](C)O)n1ncn(-c2ccc(N3CCN(c4ccc(OC[C@@H]5CO[C@@](Cn6c[n+](C(C)OC(=O)NCC(=O)[O-])cn6)(c6ccc(F)cc6F)C5)cc4)CC3)cc2)c1=O.[Cl-].[Na+] (some centres unmarked) [ST0019] | – | – | – | – | – | – | – | – | – | – | – | – | – | – | – | – | – | – | – | – | AUClast [9]: 1985 ± 358 ng·h/mL; Cmax [9]: 102 ± 26 ng/mL; T1/2 [9]: 684.6 ± 195 min
CCC(O[C@@H](C)[C@H](CC)n1ncn(-c2ccc(N3CCN(c4ccc(OC[C@@H]5CO[C@@](Cn6cncn6)(c6ccc(F)cc6F)C5)cc4)CC3)cc2)c1=O)OP(=O)([O-])[O-].[Na+].[Na+] (some centres unmarked) [ST0093] | 0.91 | – | – | – | – | – | – | – | – | – | – | – | – | – | – | – | – | – | – | – | Human plasma T1/2 [10]: 18.95 ± 2.76 min; Human intestine S9 T1/2 [11]: 61.98 ± 14.26 min; Rat plasma T1/2 [12]: 15.69 ± 4.88 min; Rat intestine S9 T1/2 [13]: 57.25 ± 12.56 min; AUClast [9]: 3056 ± 1265 ng·h/mL; Cmax [9]: 125 ± 58 ng/mL; T1/2 [9]: 746.4 ± 128 min; survival rate of mice, day 1 ([4]; 20 mg/kg intragastric once daily for 5 days, day 1): 70%; survival rate of mice, day 2 ([4]; 20 mg/kg intragastric once daily for 5 days, day 2): 70%; survival rate of mice, day 3 ([4]; 20 mg/kg intragastric once daily for 5 days, day 3): 60%; survival rate of mice, day 4 ([4]; 20 mg/kg intragastric once daily for 5 days, day 4): 60%; survival rate of mice, day 5 ([4]; 20 mg/kg intragastric once daily for 5 days, day 5): 60%; survival rate of mice, day 6 ([4]; 20 mg/kg intragastric once daily for 5 days, day 6): 60%; survival rate of mice, day 7 ([4]; 20 mg/kg intragastric once daily for 5 days, day 7): 60%; Solubility [7]: 27.9 mg/mL
